Tests used:
[1] = test system: B16-F10, A549, rabbit smooth muscle and bovine aortic endothelial cells; experiment: Cell adhesion assay, summary over the four cell types of Table II; assay type: cell-based; conditions: for Cell attachment compared to TSP, range over four cell types: text summary of Table II
[2] = test system: B16-F10 mouse melanoma cells in C57BL/6 mouse; experiment: Tumor cell metastasis assay; assay type: in vivo; conditions: compared with buffer control
[3] = Heparin binding activity; conditions: data not shown
[4] = test system: human platelets; experiment: ADP-induced platelet aggregation in platelet-rich plasma; assay type: cell-based; conditions: ADP for 5 min, 500 ug/ml peptide; buffer control more than 1,000 per clump
[5] = Oxidative stability of peptide in solution; assay type: physicochemical

For ANKHYF [reference compound], the “Cell adhesive activity (in words)” value [1] was “little or no significant cell adhesive activity” and the “Effect on lung tumor colony formation (in words)” value [2] was “no significant effect”.
In the case of CRVTCG, the Heparin binding activity [3] is reported as “possessed heparin binding activity”.
In the case of CSTSCR, the “Cell attachment compared to TSP, range over four cell types” value [1] is reported as 39-104%.
With CSVTCG the “Cell attachment compared to TSP, range over four cell types” value [1] was 29-49%, the Heparin binding activity [3] was “did not” and the Platelets per clump [4] was 10-50 platelets per clump. The “Oxidation in solution (in words)” value ([5]; multimers with apparent molecular weights of 2,000 on SDS-gels) was “slowly oxidized in solution” and the “Time for which freshly prepared solutions were stable” value ([5]; peptide in solution, oxidation of cysteine thiols) was “at least 2 h”.
With CSVTCR the “Cell attachment compared to TSP, range over four cell types” value [1] was 90-159%.
With Cyclic CSVTCG (disulfide) the “Cell adhesive activity (in words)” value [1] was “approximately to the same extent as CSVTCG”.
In the case of TCVCGS [reference compound], the “Cell adhesive activity (in words)” value [1] is reported as “little or no significant cell adhesive activity” and the “Effect on lung tumor colony formation (in words)” value [2] is reported as “no significant effect”.
With “TSP: 450,000-dalton glycoprotein secreted by platelets, purified from activated platelets” the “Number of adherent cells representing 100% adhesion” value ([1]; TSP-coated microtiter wells) was 500 adherent cells per min'.
For VCTGSC [reference compound], the “Cell adhesive activity (in words)” value [1] was “little or no significant cell adhesive activity”.

— paper PMC2289263 (The Journal of Cell Biology, 1992)
